The text below walks through data of the SangsterLogP compilation.

Data set [1] is described as follows: method code SF-RC/EIA, from DOI: 10.1016/s0022-2275(20)42614-8, PMID: 2280184. As to conditions: pH 1.0.
The nature of data set [2]: method code SF-HPLC, from DOI: 10.1016/j.bmc.2009.01.040, PMID: 19208447. As to conditions: pH 7.0.
Data set [3] can be described thus: method code SF-HPLC, from DOI: 10.1023/a:1011018730459, PMID: 11451042.
A short description of data set [4]: method code SF-HPLC, from DOI: 10.1016/s0969-8043(00)00269-4, PMID: 11200881. The settings on record: pH 7.4.
Assay in data set [5]: not given
The source holds these as a separate data set.

The nature of data set [6]: method code SF-RC, from DOI: 10.1016/j.nucmedbio.2016.05.003, PMID: 27236283. The settings on record: pH 7.4.
A short description of data set [7]: method code SF-HPLC, from DOI: 10.1016/0378-5173(89)90313-x. As to conditions: pH 7.4.
The nature of data set [8]: method code SF-RC, from DOI: 10.1016/j.nucmedbio.2016.03.005, PMID: 27179748. The settings on record: pH 7.4.
Data set [9] is described as follows: method code SF-HPLC, from DOI: 10.2174/1871523013666141114203105, PMID: 25403255. The settings on record: pH 7.4.
Data set [10] is described as follows: method code SF-RC/EN, from DOI: 10.1016/s0022-2275(20)42614-8, PMID: 2280184. The settings on record: pH 1.0.
Data set [11] in a line: method code SF-HPLC, from DOI: 10.3109/14756366.2013.845817, PMID: 24156741.
Assay in data set [12]: not given
This is another data set of the same source.

Data set [13] is described as follows: method code SF, from DOI: 10.1016/j.bmcl.2009.04.053, PMID: 19409782.

In general, logD refers to the decadic logarithm of the distribution of all forms, ionised or not, between an organic phase and buffer at a given pH. A higher logD goes with a more lipophilic compound. The compound `C[C@H](CCC(=O)NCC(=O)O)[C@H]1CC[C@H]2[C@@H]3[C@H](O)C[C@@H]4C[C@H](O)CC[C@]4(C)[C@H]3C[C@H](O)[C@]12C` returned a pH-dependent lipophilicity (logD) in data set [1] of 1.65.
For `CC(C(=O)OCC(O)C(OC1OC(CO)C(O)C(O)C1O)C(O)C(O)C=O)c1cccc(C(=O)c2ccccc2)c1` (stereo not drawn), the logD in [2] is -0.13.
A word on the logP: it is a log measure of how a compound divides between an organic and an aqueous phase. Read a low logP as lower lipophilicity. In the case of `O=C1C2C3CCC(CC3)C2C(=O)N1CCCCN1CCN(c2ccc3ccccc3n2)CC1` (stereo not drawn), the lipophilicity (logP) was found to be 4.1.
`CCCCCCCC(=O)OCC1OC(n2cnc3c(NC4CCCC4)ncnc32)C(O)C1O` (stereo not drawn): the lipophilicity (logP) in data set [3] amounted to 3.91.
In data set [4], `CNc1cccc(NC(=O)N[C@@H]2N=C(c3ccccn3)c3ccccc3N(CC(=O)C(C)(C)C)C2=O)c1` came in with a logD of 2.68.
`CCOC(=O)C1=C(C)NC(C)=C(C(=O)OCC)C1c1ccccc1/C=C/C(=O)OC(C)(C)C` registered a log partition coefficient (logP) in data set [5] of 4.43.
As for `COc1cc(NCCCF)cc(OC)c1NC(=O)c1ccc(Cc2cc3c(cc2C)CCCC3(C)C)o1`, in data set [6], the logD is 1.43.
On to `CN1C=CCC(C(=O)NCCCOC(=O)CCCc2ccc(N(CCCl)CCCl)cc2)=C1`, for which the log distribution coefficient (logD) in data set [7] was determined as 2.75.
In turn, `COC(=O)C1=C(C)NC(C)=C(C(=O)OCCN2CCN(C(c3ccccc3)c3ccccc3)CC2)C1c1cccc([N+](=O)[O-])c1` (stereo not drawn) came in with a logP in [5] of 5.2.
`COc1cc(C(=O)OCC2OC(n3cnc4c(NC5CCCC5)ncnc43)C(O)C2O)cc(OC)c1OC` (stereo not drawn) returned a log partition coefficient (logP) in [3] of 2.27.
Turning to `COc1ccc(S(=O)(=O)N(Cc2cn(CCOCCOCCOCCF)nn2)C(C(=O)NO)C(C)C)cc1` (stereo not drawn), the log distribution coefficient (logD) in data set [8] came to 0.23.
Turning to `CC1CCC(C(C)C)C(OC(=O)COC(=O)Cc2ccccc2Nc2c(Cl)cccc2Cl)C1` (stereo not drawn), the log distribution coefficient (logD) in data set [9] is 5.07.
As to `C[C@H](CCC(=O)O)[C@H]1CC[C@H]2[C@@H]3[C@H](O)C[C@@H]4C[C@H](O)CC[C@]4(C)[C@H]3C[C@H](O)[C@]12C`, the logD in [10] turned out to be 2.02.
Still for that read-out and setting: to `C[C@H](CCC(=O)O)C1CCC2C3C(CC[C@@]21C)[C@@]1(C)CC[C@@H](O)CC1C[C@H]3O` (stereo partly drawn) belongs 3.28.
In turn, `Cc1ccc(C(C)C)c(OC(=O)COC(=O)Cc2ccccc2Nc2c(Cl)cccc2Cl)c1` showed a log distribution coefficient (logD) in [9] of 5.08.
`O=C1CC2(CCCC2)CC(=O)N1CCCCN1CCN(c2ccc3ccccc3n2)CC1` registered a logP of 4.23.
For `C#CCn1cc(C(=O)NC(c2ccccc2)C(O)C(=O)Nc2ccccc2)c(=O)c2cc(F)c(Cl)nc21` (stereo not drawn), in data set [11], the logP worked out at 5.55.
`COc1cc(OCCF)cc(OC)c1NC(=O)c1ccc(Cc2cc3c(cc2C)CCCC3(C)C)o1` returned a logD in [6] of 1.85.
Turning to `CC(C(=O)C1c2cccc(O)c2C(=O)c2c(O)cccc21)c1ccc(Cc2ccccc2)cc1` (stereo not drawn), in data set [12], the logP is 4.46.
Turning to `COc1ccc(S(=O)(=O)N(Cc2ccc(OCCOCCOCCOCCOCc3cn(CCF)nn3)cc2)[C@@H](C(=O)NO)C(C)C)cc1`, the logD in [8] is 1.24.
Take `O=C(c1ccccc1)c1cccc(C(O)C(=O)OCC2OC(OC3OC(CO)C(O)C(O)C3O)C(O)C(O)C2O)c1` (stereo not drawn): in data set [2], the logD is -0.25.
Turning to `C[C@H](CCC(=O)NCC(=O)O)[C@H]1CC[C@H]2[C@@H]3[C@H](O)C[C@@H]4C[C@H](O)CC[C@]4(C)[C@H]3CC[C@]12C`, the logD in [1] was 2.12.
In data set [12], `COc1ccc2c(c1)c(CC(=O)C1c3cccc(O)c3C(=O)c3c(O)cccc31)c(C)n2C(=O)c1ccc(Cl)cc1` had a lipophilicity (logP) of 5.17.
The compound `C#CCn1cc(C(=O)NC(C(=O)NC2CCCC2)c2ccccc2)c(=O)c2cc(F)c(Cl)nc21` (stereo not drawn) gave a lipophilicity (logP) in data set [11] of 6.22.
The compound `COc1ccccc1N1CCN(CCN(C(=O)C2CCCCC2)c2ccccn2)CC1` displayed a logD in [4] of 3.1.
`CN1C=CCC(C(=O)NCC(OC(=O)CCCc2ccc(N(CCCl)CCCl)cc2)c2ccccc2)=C1` (stereo not drawn) yielded a logD in data set [7] of 2.29.
On to `O=[N+]([O-])N=C1N(Cc2ccc(Cl)nc2)CCN1Cc1ccc2c(c1)OCCOCCOCCOCCO2`, for which the logP in data set [13] is -0.82.
As to `O=[N+]([O-])N=C1N(Cc2ccc(Cl)nc2)CCN1Cc1ccc2c(c1)OCCOCCOCCOCCOCCO2`, in data set [13], the logP was -0.55.
